Test results: patent publication US7238469B2, “Carbon monoxide improves outcomes in tissue and organ transplants and suppresses apoptosis” (priority 2001, dated 2007)

How the values were obtained:
βTC3 cells = assay: DNA fragmentation analysis (FACScan) of βTC3 treated with TNF-α; format: cell-based, murine; conditions: exogenous CO 1% for 24 hours
Experimental: βTC3 cultures were incubated with recombinant TNF-α (500 or 1000 U/ml) (R&D Systems) for 24 hours and islet cultures were stimulated with TNF-É (5000 U/ml) (R&D Systems) and cyclohexamide (CHX) (50 μg/ml) for 48 hours. βTC3 or islets were harvested, dispersed, fixed in 70% ethanol, and suspended in DNA staining buffer (PBS, pH 7.4, containing 0.1% Triton X-100, 0.1 mM EDTA, 50 μg/ml propidium iodide, […] Rnase A). DNA content was analyzed on a FACScan™ analyzer equipped with Cell QuestO Software (Becton Dickinson, Palo Alto, Calif.). Cells with a normal DNA content (2N) were scored as viable, whereas cells with a hypoploid DNA content (<2N, termed A^0) were scored as apoptotic. To exclude debris and apoptotic cell-free fragments, all events with an FL-2 area profile below that of chicken erythrocyte nuclei were excluded from analysis.
Cells and islets were exposed to 1% carbon monoxide in compressed air balanced with 5% CO2, as described elsewhere (see, e.g., Otterbein et al., Nature Med. 6:422–428, 2000). […]
Whether exogenous carbon monoxide could protect β-cells from apoptosis was investigated (FIGS. 2A–C). […] After 24 hours cells were stained by propidium iodide and analyzed for DNA fragmentation on a FACScan™. […]

[1] = tested on: rat platelets overlaid on mouse 2F–2B endothelial cells; assay: Platelet aggregation assay, platelets overlaid on pretreated endothelial cells; format: cell-based; conditions: endothelial cells pretreated with protoporphyrin 50 μM; ADP 2 μM
Experimental: Mouse 2F–2B endothelial cells were cultured on 0.2% gelatin (Sigma) coated six-well plates in 88% DMEM (Life Technologies), 10% FCS (FCS), 100 U/ml penicillin, and 100 îg/ml streptomycin (Life Technologies). Confluent endothelial cells either were left untreated or were treated with the HO-inducing agent CoPPIX (50 îM; 18 h), the HO inhibitor SnPPIX (50 îM, 18 h), or both CoPPIX (50 îM, 15 h) and SnPPIX (50 îM, 3 h). Platelet-rich plasma was obtained by centrifugation (290-g, 12 min, 19° C.) of normal rat […] in 3.8% sodium citrate. Rat platelets (3–10^8 cells ml) were resuspended in HT buffer (8.9 mM NaHCO3, 0.8 mM KH2PO, 5.6 mM dextrose, 2.8 mM KCl solution, 0.8 mM MgCl2, 129 mM NaCl, 10 mM HEPES). Platelets were overlaid (5 min; 37° C.) on mouse endothelial cells, and platelet aggregation assays were conducted as described before (Kaczmarek et al, J. Biol. Chem. 271:33116, 1996) by using an aggregometer (Chrono-Log, Harestown, Pa.) and ADP (0.5–4 μM) as an agonist.

Row | SMILES | apoptotic cells (DNA fragmentation analysis) (βTC3 cells) [%] | platelet aggregation on stimulation by ADP [1]
1 | [C-]#[O+] [CO, carbon monoxide] | 11.7 | –
2 | C=Cc1c2[n-]c(c1C)/C=c1\[n-]/c(c(C)c1C=C)=C\c1[n-]c(c(CCC(=O)O)c1C)C=c1[n-]/c(c(C)c1CCC(=O)O)=C\2.[Sn+4] [SnPPIX, tin protoporphyrin IX] | – | platelet aggregation was enhanced
